Results taken from patent US7521478B2, “Total synthesis of myriaporones” (Pharma Mar, S.A.U., priority 2002, dated 2009).

Tests used:
Type in all cases: cell-based
[1] = system: DU-145; test: Inhibition of cell growth by colorimetric SRB assay, DU-145; settings: Homo sapiens, DU-145, 48 hours exposure; for CC50: cell killing, read-out: LC50 (the source's name); for IC (total growth inhibition): read-out: TGI
Summary of the method: (§1)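 Absorbance of solubilized bound SRB (490 nm) quantified cell growth and viability after cells were exposed to compound for 48 h. Seeding was 5×10^3 cells per well in RPMI 1640/10% FBS, with 18 h attachment beforehand. GI, TGI and LC were calculated from means of triplicate wells.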

[2] = system: LNCaP; test: Inhibition of cell growth by colorimetric SRB assay, LN-caP; settings: Homo sapiens, LN-caP, 48 hours exposure; for CC50: cell killing, read-out: LC50 (the source's name); for IC (total growth inhibition): read-out: TGI
Summary of the method: as §1

[3] = system: IGROV; test: Inhibition of cell growth by colorimetric SRB assay, IGROV; settings: Homo sapiens, 48 hours exposure; for CC50: cell killing, read-out: LC50 (the source's name); for IC (total growth inhibition): read-out: TGI
Summary of the method: as §1

[4] = system: IGROV-ET; test: Inhibition of cell growth by colorimetric SRB assay, IGROV-ET; settings: Homo sapiens, IGROV-ET, 48 hours exposure; for CC50: cell killing, read-out: LC50 (the source's name); for IC (total growth inhibition): read-out: TGI
Summary of the method: as §1

[5] = system: SK-BR-3; test: Inhibition of cell growth by colorimetric SRB assay, SK-BR-3; settings: SK-BR-3, 48 hours exposure; for GI50 / CC50: Homo sapiens; for CC50: cell killing, read-out: LC50 (the source's name); for TGI: total growth inhibition
Summary of the method: as §1

[6] = system: SK-MEL-28; test: Inhibition of cell growth by colorimetric SRB assay, MEL-28; settings: Homo sapiens, SK-MEL-28, MEL-28, 48 hours exposure; for CC50: cell killing, read-out: LC50 (the source's name); for IC (total growth inhibition): read-out: TGI
Summary of the method: as §1

[7] = system: A-549; test: Inhibition of cell growth by colorimetric SRB assay, A-549; settings: Homo sapiens, A549, A-549, 48 hours exposure; for CC50: cell killing, read-out: LC50 (the source's name); for IC (total growth inhibition): read-out: TGI
Summary of the method: as §1

[8] = system: K-562; test: Inhibition of cell growth by colorimetric SRB assay, K-562; settings: Homo sapiens, K562, K-562, 48 hours exposure; for CC50: cell killing, read-out: LC50 (the source's name); for IC (total growth inhibition): read-out: TGI
Summary of the method: as §1

[9] = system: PANC-1; test: Inhibition of cell growth by colorimetric SRB assay, PANC-1; settings: Homo sapiens, PANC-1, 48 hours exposure; for CC50: cell killing, read-out: LC50 (the source's name); for IC (total growth inhibition): read-out: TGI
Summary of the method: as §1

[10] = system: HT-29; test: Inhibition of cell growth by colorimetric SRB assay, HT-29; settings: Homo sapiens, HT-29, 48 hours exposure; for CC50: cell killing, read-out: LC50 (the source's name); for IC (total growth inhibition): read-out: TGI
Summary of the method: as §1

[11] = system: LoVo; test: Inhibition of cell growth by colorimetric SRB assay, LOVO; settings: Homo sapiens, LOVO, 48 hours exposure; for LC50: cell killing, read-out: LC50; for IC (total growth inhibition): read-out: TGI
Summary of the method: as §1

[12] = system: LoVo-Dox; test: Inhibition of cell growth by colorimetric SRB assay, LOVO-DOX; settings: Homo sapiens, LOVO-DOX, 48 hours exposure; for LC50 (concentration for 50% cell killing): read-out: LC50; for IC (total growth inhibition): read-out: TGI
Summary of the method: as §1

[13] = system: HeLa; test: Inhibition of cell growth by colorimetric SRB assay, HELA; settings: Homo sapiens, HELA, 48 hours exposure; for CC50: cell killing, read-out: LC50 (the source's name); for IC (total growth inhibition): read-out: TGI
Summary of the method: as §1

[14] = system: HeLa-APL; test: Inhibition of cell growth by colorimetric SRB assay, HELA-APL; settings: Homo sapiens, HELA-APL, 48 hours exposure; for CC50: cell killing, read-out: LC50 (the source's name)
Summary of the method: as §1

## C/C=C\[C@H](C)[C@H]1OC1(C)[C@@H](O[Si](C)(C)C(C)(C)C)[C@@H](CO[Si](C)(C)C(C)(C)C)C(=O)[C@H](CO[Si](C)(C)C(C)(C)C)[C@@H](CC(=O)CC)O[Si](C)(C)C(C)(C)C (stereo partly shown) [Compound 19b]
[1]
  GI50: 12 µM
  CC50: 12 µM
  IC (total growth inhibition): 12 µM
[2]
  GI50: 12 µM
  CC50: 12 µM
  IC (total growth inhibition): 12 µM
[3]
  GI50: 12 µM
  CC50: 12 µM
  IC (total growth inhibition): 12 µM
[4]
  GI50: 12 µM
  CC50: 12 µM
  IC (total growth inhibition): 12 µM
[5]
  GI50: 6.15 µM
  CC50: 12 µM
  TGI: 1.17E−05 Molar
[6]
  GI50: 12 µM
  CC50: 12 µM
  IC (total growth inhibition): 12 µM
[7]
  GI50: 12 µM
  CC50: 12 µM
  IC (total growth inhibition): 12 µM
[8]
  GI50: 12 µM
  CC50: 12 µM
  IC (total growth inhibition): 12 µM
[9]
  GI50: 12 µM
  CC50: 12 µM
  IC (total growth inhibition): 12 µM
[10]
  GI50: 12 µM
  CC50: 12 µM
  IC (total growth inhibition): 12 µM
[11]
  GI50: 12 µM
  LC50: 12 µM
  IC (total growth inhibition): 12 µM
[12]
  GI50: 12 µM
  LC50 (concentration for 50% cell killing): 12 µM
  IC (total growth inhibition): 12 µM
[13]
  GI50: 12 µM
  CC50: 12 µM
  IC (total growth inhibition): 12 µM
[14]
  CC50: 12 µM

## C/C=C\[C@H](C)[C@H]1O[C@@]1(C)[C@@H](O)[C@@H](COC(C)=O)C(=O)[C@H](CO)[C@@H](O)CC(=O)CC [Compound 47]
[1]
  GI50: 0.0815 µM
  CC50: 24.1 µM
  IC (total growth inhibition): 0.531 µM
[2]
  GI50: 0.0813 µM
  CC50: 8.88 µM
  IC (total growth inhibition): 0.536 µM
[3]
  GI50: 0.0639 µM
  CC50: 24.1 µM
  IC (total growth inhibition): 0.528 µM
[4]
  GI50: 0.152 µM
  CC50: 24.1 µM
  IC (total growth inhibition): 1.08 µM
[5]
  GI50: 0.0231 µM
  CC50: 2.3 µM
  TGI: 1.18E−07 Molar
[6]
  GI50: 0.082 µM
  CC50: 12.9 µM
  IC (total growth inhibition): 0.984 µM
[7]
  GI50: 0.151 µM
  CC50: 23.2 µM
  IC (total growth inhibition): 1.12 µM
[8]
  GI50: 0.294 µM
  CC50: 11.8 µM
  IC (total growth inhibition): 0.999 µM
[9]
  GI50: 0.0905 µM
  CC50: 19.5 µM
  IC (total growth inhibition): 2.38 µM
[10]
  GI50: 0.106 µM
  CC50: 24.1 µM
  IC (total growth inhibition): 3.11 µM
[11]
  GI50: 0.0403 µM
  LC50: 17.7 µM
  IC (total growth inhibition): 0.374 µM
[12]
  GI50: 0.216 µM
  LC50 (concentration for 50% cell killing): 24.1 µM
  IC (total growth inhibition): 24.1 µM
[13]
  GI50: 0.0717 µM
  CC50: 13.5 µM
  IC (total growth inhibition): 0.434 µM
[14]
  CC50: 24.1 µM
[14]; read-out: GI50
  GI50: 0.0796 µM
[14]; total growth inhibition, read-out: TGI
  IC (total growth inhibition): 0.591 µM
